According to patent US5041653A, “Substituted benzamide radiosensitizers” (SRI International, priority 1990, dated 1991):

Tests used:
[1] = test system: Chinese hamster ovary HA-1 cells; assay: Cytotoxicity test (% cell survival, hypoxic HA-1 cells); format: cell-based; conditions: 10 mM test compound, 1 hr at 22° C., hypoxia (N2 containing 5% CO2), 60 min, 10000 µM
Procedure: (§1) Cytotoxicity tests were also carried out on each of the compounds. The test procedure was as follows: Log-phase Chinese hamster ovary HA-1 cells were trypsinized (0.5% trypsin in Hank's buffered salt solution (HBSS)) and plated in 60 mm Permanox petri dishes in concentrations necessary to yield approximately 30 colonies after experimental treatment. The cells were allowed to attach overnight. Then the medium was removed from each dish and replaced with 2 ml of medium containing varying concentrations of the test compound. The petri dishes were then placed in nylon chamber fitted with gassing ports and, to achieve hypx=oxia, were gassed at room temperature with humidified N2 containing 5% CO2 for 1 hr at a rate of 1 l/min. The cells are then exposed to 10 mM of the test compound for 1 hr at 22° C. The % cell survival is read after such treatment.

[2] = as above; format: cell-based, Chinese hamster; conditions: chinese hamster, ha-1 cells, hypoxic, 10 mM test compound, 1 hr at 22° C., hypoxia (N2 containing 5% CO2)
Procedure: as §1

EMT6 tumors = assay: In vivo assay for radiosensitization activity (EMT6 tumors in female BALB/c mice, survival of dissected and cultured tumor cells, compared with MIS); design: key to Radiosensitization (score 0 to 4 vs MIS): 0: No radiosensitization; 1: Minimal radiosensitization (some radiosensitization relative to controls but lowest survival>3×lowest survival with MIS); 2: Moderate radiosensitization (not good as MIS, but lowest surviving fraction<3×lowest surviving fraction with MIS); 3: Good radiosensitization (equal to MIS); 4: Excellent radiosensitization (superior to MIS); conditions: for Radiosensitization (score 0 to 4 vs MIS): EMT6 tumors, BALB/c mice, 5 mmole/kg or 2/3 of LD50 ip, 2,000 rad at 5 min to 2 hr after injection; for sensitizer enhancement ratio: at a 1-2 mM concentration, comparable to that for MIS
Procedure: The compounds of the invention are tested in vivo for radiosensitization activity by the assay of Brown, J. M., Radiation Res (1975) 64:633-47, incorporated herein by reference. For this assay EMT6 tumors in female BALB/c mice weighing 20-25 g are used. These mice are bred under specific pathogen-free conditions and are 3-4 months old at the beginning of each experiment. The EMT6 tumor is grown intradermally in the flank from an inoculation of 2×10^5 tumor cells taken from the 2nd-8th in vitro passage of the tumor cells since removal from the previous in vivo tumor. Two tumors per mouse are implanted, and are used as subject tumors when they reach a volume of approximately […]. At this point the tumors contain approximately 20% hypoxic cells.
Test compounds are compared against MIS in this assay. The test compound is tested at a fixed injected dose of either 5 mmole/kg or 2/3 of the LD50 (whichever is lower), MIS is injected into controls at the same dose. Additional suitable controls of test compound-injected but non-irradiated and saline-injected and irradiated mice are also included. A fixed radiation dose of 2,000 rad is applied at variable intervals of 5 min to 2 hr between injection and irradiation. Typically, irradiation is applied at 5, 10, 15, 20, 30, 45, 60, 90, and 120 min following intraperitoneal administration of both drugs. By using these intervals, the results give an indication of both the optimum time to irradiate and of how the test compound sensitizes in relationship to MIS.
Irradiation of the EMT6 tumors is done by irradiating nonanesthetized tumor-bearing mice in a Plexiglas box. Irradiation conditions are 250 kVp X-rays, 15 mA, FSC 33 cm, added filtration of 0.35 mm Cu, half value layer 1.3 mm Cu, and a dose rate of 317 rad/min.
Radiosensitization activity is judged by survival rate of dissected and cultured tumor cells as follows: The tumor-bearing mice are killed immediately after irradiation, and tumors dissected from the skin, cut into several pieces, and made into a fine brei by high-speed chopping with a razor blade attached to a jigsaw. The brei is added to 30 ml of Hank's buffered salt solution (HBSS) containing 0.02% DNase, 0.05% promase, and 0.02% collagenase. The suspension is stirred for 30 min at 37° C., filtered, and centrifuged at 1,600 rmp for 10 min at 4° C. The cell pellet is resuspended in complete Waymouth's medium plus 121/2% horse serum plus 2-12% fetal calf serum (FCS) and an aliquot mixed with trypan blue and counted with the use of a hemacytometer. Suitable dilutions of this […] plated into 60- or 100-mm polystyrene petri dishes (Lux Scientific Corp) in 5 or 15 ml of medium. After incubation for 13 days, the colonies are fixed and stained, and those containing 50 cells or more are counted. The dilution yielding an average count of 25-100 colonies in a 60 mm dish is used in calculation of results.
The test compound is scored on the scale of 0 to 4 based on how it compares with MIS. The scoring system is:
1: Minimal radiosensitization (some radiosensitization relative to controls but lowest survival>3×lowest survival with MIS)
2: Moderate radiosensitization (not good as MIS, but lowest surviving fraction<3×lowest surviving fraction with MIS)
3: Good radiosensitization (equal to MIS)

Compound	Cytotoxicity % Cell Survival [1]	viability at 1 h, 10000 µM [2]	Radiosensitization (score 0 to 4 vs MIS) (EMT6 tumors)	sensitizer enhancement ratio (EMT6 tumors)
NC(=O)c1cccc(O)c1 [3-hydroxybenzamide]	77%	90%	3	1.6
NC(=O)c1cccc(OCCO)c1 [3-(2-hydroxyethoxy)benzamide]		89%	3	1.6
CC(=O)OCCOc1cccc(C(N)=O)c1 [3-(2-acetoylethoxy)benzamide, 3-(2-Acetoxyethoxy)benzamide]				1.6
